Measurements: US20030113281A1, “Assay for identification of compounds that promote melanin production and retinoid-like compounds identified by said assay” (Galderma Research & Development, S.N.C., priority 1998, published 2003)

Tested on: normal human melanocytes
Experiment: Melanin content of normal human melanocytes, normalized to proliferation (MTS)
Assay type: cell-based
Settings: 5 day treatment, normal human melanocytes from neonatal skin
Protocol: Normal human melanocytes from neonatal skin were used for the assay. For the primary screening, the cells were seeded simultaneously into 96-well plates and 24-well plates appropriately according to the surface area of the wells, and treated with the test compound for 5 days. The addition of the compound to the plates was done using a Robot to ensure accuracy (same amount in each well). At the end of 5 day treatment, the cells in the 96-well plate were treated with MTS solution and the plate was read at 490 nm to determine the effect of the compounds on the growth of the cells. The cells in the 24-well plates were rinsed with PBS, and then lysed with 1N NaOH, and the absorbence of alkali soluble melanin was measured at 405 nm.
The data from the 96-well plate was analyzed to determine the effect of each compound on the proliferation of the cells, and the data from the 24-well plate was used to determine the effect of the compound on the melanin content of the cells. The melanin content was then normalized to the proliferation of the cells.

## C=C(c1ccc(C(=O)O)cc1)c1ccc2c(c1)C(C)(C)CCC2(C)C [CD No. 2771, 4-[1-(5,6.7,8-tetrahydro-5,5,8,8-tetramethyl-2-naphthyl)ethenyl]benzoic acid]
At 2 μM
  Maximum Increase in Melanin Content (Normalized): 250% at 2 μM

## Cc1cc2c(cc1-c1cccc(C=CC(=O)O)c1)C(C)(C)CCC2(C)C [CD No. 2915, 3-[3-(3,5,5,8,8-pentamethyl-5.6,7.8-tetrahydro-naphthalen-2-yl)-phenyl]-acrylic acid]
At 0.1 μM
  Maximum Increase in Melanin Content (Normalized): 165% at 0.1 μM

## CC(=CC(=O)O)c1cccc(-c2cc3c(cc2C)C(C)(C)CCC3(C)C)c1 [CD No. 3206, 3-[3-(3,5.5,8,8-pentamethyl-5,6,7,8-tetrahydro-naphthalen-2-yl)-phenyl]-but-2-enoic acid]
At 0.5 μM
  Maximum Increase in Melanin Content (Normalized): 198% at 0.5 μM
